US11844794B2, “Pharmaceutical compositions” (ADEPTIO PHARMACEUTICALS LIMITED, priority 2017, dated 2023)

Legend:
[1] = equilibrium aqueous solubility by HPLC; type: physicochemical; details: water, thermodynamic from solid
Procedure: The aqueous solubilities of salts were measured by an equilibrium method in which an amount of the salt was weighed into a 2 ml vial equipped with a magnetic stirrer bar and water added. In cases where complete dissolution was observed, more material was added until the sample was exhausted. The slurry was then stirred for seven days before isolating the solids by centrifuge-filtration. The solids were analysed by XRPD and the filtrates were analysed by HPLC to determine the amount of (+)-alpha-dihydrotetrabenazine salt in solution. The solubilities were calculated against a calibration curve established for a (+)-alpha-dihydrotetrabenazine sample of known concentration.

[2] = pharmacokinetics after oral administration to male Beagle dogs; type: in vivo, Beagle dog
Procedure: Doses were administered orally, via gavage, at a dose volume of 2.00 mL/kg yielding the target dose level of 1.50 mg/kg. Following dosing, 10 mL of tap water was flushed down the gavage to ensure the entire dose was dispensed. Following dosing over four sessions each with one of the test materials, serial whole blood samples (circa. 1.3 mL) were collected from a jugular vein then placed into K2 EDTA treated tubes pre-dose and then 0.25, 0.50, 1, 2, 3, 4, 6, 12 and 24 hours post dose. Blood samples were placed immediately on a cool-block before being centrifuged within 15 minutes at 3,000×g, 10 minutes, 4° C. and resultant plasma drawn off. […] Doses were administered orally, via gavage, at a dose volume of 2.00 mL/kg yielding the target dose level of 1.50 mg/kg. Following dosing, 10 mL of tap water was flushed down the gavage to ensure the entire dose was dispensed. Following dosing over four sessions each with one of the test materials, serial whole blood samples (circa. 1.3 mL) were collected from a jugular vein then placed into K2 EDTA treated tubes pre-dose and then 0.25, 0.50, 1, 2, 3, 4, 6, 12 and 24 hours post dose. Blood samples were placed immediately on a cool-block before being centrifuged within 15 minutes at 3,000×g, 10 minutes, 4° C. and resultant plasma drawn off.

[3] = solid form stability in slurry / polymorphism by XRPD; type: physicochemical
[4] = male, Beagle (HsdRcc:DOBE), dog, plasma, po, 1.5 mg/kg, Plasma concentration of (+)-α-dihydrotetrabenazine, Male 1, oral 1.50 mg/kg (freebase equivalent)
[5] = male, Beagle (HsdRcc:DOBE), dog, plasma, po, 1.5 mg/kg, Plasma concentration of (+)-α-dihydrotetrabenazine, Male 2, oral 1.50 mg/kg (freebase equivalent)
[6] = male, Beagle (HsdRcc:DOBE), dog, plasma, po, 1.5 mg/kg, Plasma concentration of (+)-α-dihydrotetrabenazine, Male 3, oral 1.50 mg/kg (freebase equivalent)
[7] = male, Beagle (HsdRcc:DOBE), dog, plasma, po, 1.5 mg/kg, Plasma concentration of (+)-α-dihydrotetrabenazine, Mean of 3 dogs, oral 1.50 mg/kg (freebase equivalent)
[8] = male, Beagle (HsdRcc:DOBE), dog, plasma, po, 1.5 mg/kg, Plasma concentration of (+)-α-dihydrotetrabenazine, Mean of 3 dogs, oral 1.50 mg/kg (freebase equivalent), BLQ treated as zero

For `COc1cc2c(cc1OC)[C@H]1C[C@@H](O)[C@H](CC(C)C)CN1CC2.O=C(O)CCC(=O)O` [(+)-α-dihydrotetrabenazine succinate], the solubility thermodynamic at 7 days [1] was > 350 mg/mL, the “time post dose at which Cmax was observed” value ([2]; dog, in vivo, po, 1.5 mg/kg) was 0.33 h and the mean exposure ([2]; male Beagle dogs, oral 1.50 mg/kg (freebase equivalent)) was 71.8782 ng·mL·h. It also gave a concentration at 0.25 h [2, 4] of 66.7 ng/mL, a concentration at 0.5 h [2, 4] of 47.6 ng/mL and a concentration at 1 h [2, 4] of 23.4 ng/mL. The concentration at 2 h [2, 4] was 7.04 ng/mL, the concentration at 3 h [2, 4] was 2.48 ng/mL and the concentration at 4 h [2, 4] was 1.03 ng/mL. For the same compound, the concentration at 6 h [2, 4] was 0.304 ng/mL, the concentration at 0.5 h [2, 5] was 32.4 ng/mL and the concentration at 1 h [2, 5] was 14.8 ng/mL. For the same compound, the concentration at 2 h [2, 5] was 3.65 ng/mL, the concentration at 3 h [2, 5] was 1.23 ng/mL and the concentration at 4 h [2, 5] was 0.531 ng/mL. It also gave a concentration at 0.5 h [2, 6] of 83.1 ng/mL, a concentration at 1 h [2, 6] of 49.2 ng/mL and a concentration at 2 h [2, 6] of 21.7 ng/mL. It also gave a concentration at 3 h [2, 6] of 10.6 ng/mL, a concentration at 4 h [2, 6] of 6.21 ng/mL and a concentration at 6 h [2, 6] of 1.68 ng/mL. It also gave a concentration at 12 h [2, 6] of 0.212 ng/mL, a concentration at 0 h ([2]; male, Beagle (HsdRcc:DOBE), dog, plasma, po, 1.5 mg/kg, Plasma concentration of (+)-α-dihydrotetrabenazine, Mean of 3 dogs, oral 1.50 mg/kg (freebase equivalent), 0 h (pre-dose), BLQ treated as zero) of 0 ng/mL and a concentration at 0.25 h [2, 7] of 46 ng/mL. It also gave a concentration at 0.5 h [2, 7] of 54.4 ng/mL, a concentration at 1 h [2, 7] of 29.1 ng/mL and a concentration at 2 h [2, 7] of 10.8 ng/mL. The concentration at 3 h [2, 7] was 4.77 ng/mL, the concentration at 4 h [2, 7] was 2.59 ng/mL and the concentration at 6 h [2, 8] was 0.66 ng/mL. For the same compound, the concentration at 12 h [2, 8] was 0.07 ng/mL, the concentration at 24 h ([2]; male, Beagle (HsdRcc:DOBE), dog, plasma, po, 1.5 mg/kg, Plasma concentration of (+)-α-dihydrotetrabenazine, Mean of 3 dogs, oral 1.50 mg/kg (freebase equivalent), 24 h, BLQ treated as zero) was 0 ng/mL and the Cmax ([2]; male, Beagle, dog, in vivo, po, 1.5 mg/kg) was 64.3 ng/mL. The polymorphism [3] was “no evidence of polymorphism”.
